Assay results taken from patent US6706663B2, “Herbicidal 3-heterocyclic substituted benzisothiazole and benzisoxazole compounds” (Wyeth, priority 2000, dated 2004).

Experiments:
[1] = system: CYPIR (Cyperus iria); experiment: Flooded paddy, preemergence weed control; assay type: in vivo; settings: rated 3-4 weeks after treatment, 0-9 rating scale
Method in brief: (§1)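 Seeds or propagating organs were sown in the top 0.5 cm of silt loam soil, flooded, and the water kept 1.5 to 3 cm above the soil surface throughout. Plants were grown in the greenhouse and rated visually on a 0-9 scale against a control.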

[2] = system: GLXMAW (Soybean, Williams); experiment: Preemergence herbicidal evaluation; assay type: in vivo, Glycine max, (L.) Merr. cv Williams; settings: rated 4-5 weeks after treatment
[3] = system: GALAP (Galium aparine); experiment: Preemergence herbicidal evaluation; assay type: in vivo; settings: rated 4-5 weeks after treatment
Method in brief: (§2)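 Greenhouse preemergence test: freshly planted cups were sprayed once with an aqueous acetone solution of compound. Injury was judged visually on a 0–9 scale relative to a control, four to five weeks later.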

[4] = system: ZEAMX (Corn, Field); experiment: Preemergence herbicidal evaluation; assay type: in vivo, Zea mays, L.; settings: rated 4-5 weeks after treatment
[5] = system: SAGPY (Sagittaria pygmaea); experiment: Flooded paddy, preemergence weed control; assay type: in vivo, L.; settings: rated 3-4 weeks after treatment, 0-9 rating scale
Method in brief: as §1

[6] = system: IPOHE (Ipomoea hederacea); experiment: Preemergence herbicidal evaluation; assay type: in vivo, (L.) Jacq.; settings: rated 4-5 weeks after treatment
[7] = system: IPOHE (Ipomoea hederacea); experiment: Postemergence herbicidal evaluation; assay type: in vivo, (L.) Jacq.
Method in brief: (§3)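 Seedlings grown for about two weeks were sprayed postemergence and then kept under standard greenhouse care. Injury was rated visually 4–5 weeks after treatment on a 0–9 scale against untreated controls, and ratings from repeat tests were averaged.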

[8] = system: ECHORC (Echinochloa oryzoides); experiment: Flooded paddy, preemergence weed control; assay type: in vivo, Echinochloa oryzoides (Ard.) Fritsch.; settings: rated 3-4 weeks after treatment, 0-9 rating scale
Method in brief: as §1

[9] = system: GLXMAW (Soybean, Williams); experiment: Postemergence herbicidal evaluation; assay type: in vivo, Glycine max, (L.) Merr. cv Williams
Method in brief: as §3

[10] = system: ORYSAT (Rice, Tebonnet); experiment: Preemergence herbicidal evaluation; assay type: in vivo, Oryza sativa, (L.) Tebonnet; settings: rated 4-5 weeks after treatment
[11] = system: CYPSE (Cyperus serotinus); experiment: Flooded paddy, preemergence weed control; assay type: in vivo, Rottb.; settings: rated 3-4 weeks after treatment, 0-9 rating scale
Method in brief: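 Seeds or propagules were planted 0.5 cm deep in silt loam and flooded to 1.5–3 cm. Compounds in 50/50 v/v aqueous/acetone were pipetted into the flood water at about 0.0080 to 0.1250 kg/ha. After 3–4 weeks in the greenhouse, effect was rated visually on a 0–9 scale versus untreated control.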

[12] = system: ABUTH (Abutilon theophrasti); experiment: Postemergence herbicidal evaluation; assay type: in vivo, Medic.
Method in brief: as §3

[13] = system: GALAP (Galium aparine); experiment: Postemergence herbicidal evaluation; assay type: in vivo
Method in brief: as §3

[14] = system: CASOB (Cassia obtusifolia); experiment: Preemergence herbicidal evaluation; assay type: in vivo, L.; settings: rated 4-5 weeks after treatment
Method in brief: as §2

[15] = system: AMBEL (Ambrosia artemisifolia); experiment: Preemergence herbicidal evaluation; assay type: in vivo, L.; settings: rated 4-5 weeks after treatment
Method in brief: as §2

[16] = system: CHEAL (Chenopodium album); experiment: Preemergence herbicidal evaluation; assay type: in vivo, L.; settings: rated 4-5 weeks after treatment
Method in brief: as §2

[17] = system: CASOB (Cassia obtusifolia); experiment: Postemergence herbicidal evaluation; assay type: in vivo, L.
Method in brief: as §3

[18] = system: AMBEL (Ambrosia artemisifolia); experiment: Postemergence herbicidal evaluation; assay type: in vivo, L.
Method in brief: as §3

[19] = system: CHEAL (Chenopodium album); experiment: Postemergence herbicidal evaluation; assay type: in vivo, L.
Method in brief: as §3

[20] = system: TRZAWR (Wheat, Winter, cv Riband); experiment: Preemergence herbicidal evaluation; assay type: in vivo, Triticum aestivum; settings: rated 4-5 weeks after treatment
Method in brief: as §2

[21] = system: ZEAMX (Corn, Field); experiment: Postemergence herbicidal evaluation; assay type: in vivo, Zea mays, L.
Method in brief: as §3

[22] = system: ECHCG (Echinochloa crus-galli); experiment: Postemergence herbicidal evaluation; assay type: in vivo, (L.) Beau
Method in brief: as §3

In the case of `Cn1c(C(F)(F)F)cc(=O)n(-c2ccc3snc(C4OCCO4)c3c2)c1=O` [Compound 45, 3-[3-(1,3-dioxolan-2-yl)-1,2-benzisothiazol-5-yl]-1-methyl-6-(trifluoromethyl)uracil], the “herbicidal rating, CYPIR” value ([1]; rate 0.0080 kg/ha) is reported as 9.0, the “herbicidal rating, CYPIR” value ([1]; rate 0.0320 kg/ha) is reported as 9.0 and the “herbicidal rating, CYPIR” value ([1]; rate 0.1250 kg/ha) is reported as 9.0. The “Preemergence herbicidal rating GLXMAW” value ([2]; Rate 0.0620 kg/ha) was 9.0, the “Preemergence herbicidal rating GLXMAW” value ([2]; Rate 0.1250 kg/ha) was 9.0 and the “Preemergence herbicidal rating GLXMAW” value ([2]; Rate 0.2500 kg/ha) was 9.0. The “Preemergence herbicidal rating GALAP” value ([3]; Rate 0.0620 kg/ha) was 7.0, the “Preemergence herbicidal rating GALAP” value ([3]; Rate 0.1250 kg/ha) was 9.0 and the “Preemergence herbicidal rating GALAP” value ([3]; Rate 0.2500 kg/ha) was 9.0. The “Preemergence herbicidal rating ZEAMX” value ([4]; Rate 0.0620 kg/ha) was 8.8, the “Preemergence herbicidal rating ZEAMX” value ([4]; Rate 0.1250 kg/ha) was 9.0 and the “Preemergence herbicidal rating ZEAMX” value ([4]; Rate 0.2500 kg/ha) was 8.7. The “herbicidal rating, SAGPY” value ([5]; rate 0.0080 kg/ha) was 7.0, the “herbicidal rating, SAGPY” value ([5]; rate 0.0320 kg/ha) was 8.0 and the “herbicidal rating, SAGPY” value ([5]; rate 0.1250 kg/ha) was 9.0. The “Preemergence herbicidal rating IPOHE” value ([6]; Rate 0.0620 kg/ha) was 9.0, the “Preemergence herbicidal rating IPOHE” value ([6]; Rate 0.1250 kg/ha) was 9.0 and the “Preemergence herbicidal rating IPOHE” value ([6]; Rate 0.2500 kg/ha) was 9.0. The “Postemergence herbicidal rating, IPOHE” value ([7]; rate 0.0320 kg/ha) was 9.0, the “Postemergence herbicidal rating, IPOHE” value ([7]; rate 0.0620 kg/ha) was 9.0 and the “herbicidal rating, ECHORC” value ([8]; rate 0.0080 kg/ha) was 3.5. The “herbicidal rating, ECHORC” value ([8]; rate 0.0320 kg/ha) was 7.3, the “herbicidal rating, ECHORC” value ([8]; rate 0.1250 kg/ha) was 9.0 and the “Postemergence herbicidal rating, GLXMAW” value ([9]; rate 0.0320 kg/ha) was 8.8. For the same molecule, the “Postemergence herbicidal rating, GLXMAW” value ([9]; rate 0.0620 kg/ha) was 8.8, the “Preemergence herbicidal rating ORYSAT” value ([10]; Rate 0.0620 kg/ha) was 8.7 and the “Preemergence herbicidal rating ORYSAT” value ([10]; Rate 0.1250 kg/ha) was 9.0. For the same molecule, the “Preemergence herbicidal rating ORYSAT” value ([10]; Rate 0.2500 kg/ha) was 9.0, the “herbicidal rating, CYPSE” value ([11]; rate 0.0080 kg/ha) was 9.0 and the “herbicidal rating, CYPSE” value ([11]; rate 0.0320 kg/ha) was 9.0. The “herbicidal rating, CYPSE” value ([11]; rate 0.1250 kg/ha) was 9.0, the “Postemergence herbicidal rating, ABUTH” value ([12]; rate 0.0320 kg/ha) was 9.0 and the “Postemergence herbicidal rating, ABUTH” value ([12]; rate 0.0620 kg/ha) was 9.0. For the same molecule, the “Postemergence herbicidal rating, GALAP” value ([13]; rate 0.0320 kg/ha) was 8.5, the “Postemergence herbicidal rating, GALAP” value ([13]; rate 0.0620 kg/ha) was 9.0 and the “Preemergence herbicidal rating CASOB” value ([14]; Rate 0.0620 kg/ha) was 8.7. For the same molecule, the “Preemergence herbicidal rating CASOB” value ([14]; Rate 0.1250 kg/ha) was 9.0, the “Preemergence herbicidal rating CASOB” value ([14]; Rate 0.2500 kg/ha) was 9.0 and the “Preemergence herbicidal rating AMBEL” value ([15]; Rate 0.0620 kg/ha) was 9.0. The “Preemergence herbicidal rating AMBEL” value ([15]; Rate 0.1250 kg/ha) was 9.0, the “Preemergence herbicidal rating AMBEL” value ([15]; Rate 0.2500 kg/ha) was 9.0 and the “Preemergence herbicidal rating CHEAL” value ([16]; Rate 0.0620 kg/ha) was 9.0. For the same molecule, the “Preemergence herbicidal rating CHEAL” value ([16]; Rate 0.1250 kg/ha) was 9.0, the “Preemergence herbicidal rating CHEAL” value ([16]; Rate 0.2500 kg/ha) was 9.0 and the “Postemergence herbicidal rating, CASOB” value ([17]; rate 0.0320 kg/ha) was 5.0. The “Postemergence herbicidal rating, CASOB” value ([17]; rate 0.0620 kg/ha) was 9.0, the “Postemergence herbicidal rating, AMBEL” value ([18]; rate 0.0320 kg/ha) was 9.0 and the “Postemergence herbicidal rating, AMBEL” value ([18]; rate 0.0620 kg/ha) was 9.0. The “Postemergence herbicidal rating, CHEAL” value ([19]; rate 0.0320 kg/ha) was 8.5, the “Postemergence herbicidal rating, CHEAL” value ([19]; rate 0.0620 kg/ha) was 9.0 and the “Preemergence herbicidal rating TRZAWR” value ([20]; Rate 0.0620 kg/ha) was 9.0. The “Preemergence herbicidal rating TRZAWR” value ([20]; Rate 0.1250 kg/ha) was 9.0, the “Preemergence herbicidal rating TRZAWR” value ([20]; Rate 0.2500 kg/ha) was 9.0 and the “Postemergence herbicidal rating, ZEAMX” value ([21]; rate 0.0320 kg/ha) was 5.5. The “Postemergence herbicidal rating, ZEAMX” value ([21]; rate 0.0620 kg/ha) was 6.0, the “Postemergence herbicidal rating, ECHCG” value ([22]; rate 0.0320 kg/ha) was 2.8 and the “Postemergence herbicidal rating, ECHCG” value ([22]; rate 0.0620 kg/ha) was 4.0.
